Test results reported in the supplement of paper PMC13380429.

Columns and labels:
Conditions in all cases: 72 h
Caco-2 [1] = assay: relative viability EC50 (midpoint between 100% and the lowest measured viability); higher = less toxic
HepG2 [2] = assay: as above
U2OS [3] = assay: as above
Calu-3 [4] = assay: as above
Vero E6 [5] = assay: as above
Caco-2 [6] = assay: drug sensitivity score (DSS) for viability; higher = more toxic; extreme values may be limits of the assay
HepG2 [7] = assay: as above
U2OS [8] = assay: as above
Calu-3 [9] = assay: as above
Vero E6 [10] = assay: as above
Caco-2 [11] = assay: cell viability relative to DMSO; higher = less toxic
HepG2 [12] = assay: as above
U2OS [13] = assay: as above
Calu-3 [14] = assay: as above
Vero E6 [15] = assay: as above

Structure (SMILES) | relative viability EC50 (Caco-2 [1]) | relative viability EC50 (HepG2 [2]) | relative viability EC50 (U2OS [3]) | relative viability EC50 (Calu-3 [4]) | relative viability EC50 (Vero E6 [5]) | drug sensitivity score (Caco-2 [6]) | drug sensitivity score (HepG2 [7]) | drug sensitivity score (U2OS [8]) | drug sensitivity score (Calu-3 [9]) | drug sensitivity score (Vero E6 [10]) | cell viability (Caco-2 [11]; 1 nM) | cell viability (Caco-2 [11]; 10 nM) | cell viability (Caco-2 [11]; 100 nM) | cell viability (Caco-2 [11]; 1000 nM) | cell viability (Caco-2 [11]; 10000 nM) | cell viability (HepG2 [12]; 1 nM) | cell viability (HepG2 [12]; 10 nM) | cell viability (HepG2 [12]; 100 nM) | cell viability (HepG2 [12]; 1000 nM) | cell viability (HepG2 [12]; 10000 nM) | cell viability (U2OS [13]; 1 nM) | cell viability (U2OS [13]; 10 nM) | cell viability (U2OS [13]; 100 nM) | cell viability (U2OS [13]; 1000 nM) | cell viability (U2OS [13]; 10000 nM) | cell viability (Calu-3 [14]; 1 nM) | cell viability (Calu-3 [14]; 10 nM) | cell viability (Calu-3 [14]; 100 nM) | cell viability (Calu-3 [14]; 1000 nM) | cell viability (Calu-3 [14]; 10000 nM) | cell viability (Vero E6 [15]; 1 nM) | cell viability (Vero E6 [15]; 10 nM) | cell viability (Vero E6 [15]; 100 nM) | cell viability (Vero E6 [15]; 1000 nM) | cell viability (Vero E6 [15]; 10000 nM)
CC[n+]1c(-c2ccccc2)c2cc(N)ccc2c2ccc(N)cc21 [homidium] | 0.984 µM | 0.679 µM | 1.74 µM | 2.94 µM | > 10 µM | 10.7 | 8.1 | 5.3 | 4.4 | 0.1 | 95.9% | 93.2% | 87.2% | 55.4% | 4.5% | 107% | 101% | 88% | 64.5% | 35.7% | 97.1% | 96% | 98.4% | 87.8% | 39.2% | 103% | 98.9% | 93% | 97.7% | 26.4% | 92.8% | 100% | 90.5% | 94.5% | 85.3%
COc1ccc(-c2cc(=O)c3c(O)c(OC)c(O)cc3o2)cc1OC [eupatilin] | > 10 µM | > 10 µM | > 10 µM | > 10 µM | > 10 µM | 0 | 0 | 0 | 0.9 | 0 | 98.3% | 94.8% | 94.7% | 96.9% | 92.9% | 94.2% | 99% | 85.9% | 99.5% | 90.1% | 105% | 97.3% | 102% | 99.7% | 101% | 92.2% | 101% | 92.6% | 93.9% | 78.5% | 99.6% | 102% | 97.2% | 97.3% | 97.8%
N[C@@H](C(=O)O)c1nn[nH]n1 (racemic) [tetrazol-5-yl-glycine-(RS)] | > 10 µM | > 10 µM | > 10 µM | > 10 µM | > 10 µM | 0 | 0 | 0 | 0.1 | 0 | 97.2% | 95.6% | 104% | 98% | 90.6% | 91% | 107% | 101% | 96.6% | 108% | 104% | 98.5% | 103% | 93.7% | 104% | 112% | 109% | 105% | 95.2% | 89.3% | 95% | 104% | 90.2% | 98.3% | 107%
Cc1ccc(S(=O)(=O)NC2c3ccccc3Oc3ccccc32)cc1 [AH-7614] | > 10 µM | > 10 µM | > 10 µM | > 10 µM | > 10 µM | 0 | 0 | 0 | 0 | 0 | 96.5% | 87.3% | 91.7% | 92.9% | 93.4% | 96.4% | 91.5% | 103% | 110% | 93% | 105% | 95.8% | 102% | 102% | 100% | 101% | 108% | 96.5% | 96.5% | 113% | 95.8% | 100% | 99.1% | 98% | 103%
CN1C(C(=O)Nc2ccccn2)=C(O)c2sc(Cl)cc2S1(=O)=O [lornoxicam] | > 10 µM | > 10 µM | > 10 µM | > 10 µM | > 10 µM | 0 | 0 | 0 | 0 | 0 | 110% | 95% | 99.9% | 86.6% | 95.5% | 91.1% | 104% | 100% | 104% | 97.4% | 100% | 93.8% | 102% | 94.7% | 100% | 95.3% | 100% | 107% | 99.8% | 104% | 92.4% | 98.8% | 94.8% | 97.1% | 91.3%
O=C(O)c1ccc(/C=C2\SC(=S)N(c3cccc(C(F)(F)F)c3)C2=O)cc1 [CFTRinh-172] | > 10 µM | > 10 µM | > 10 µM | > 10 µM | > 10 µM | 0 | 0 | 0 | 0 | 0 | 104% | 100% | 86.7% | 99.4% | 99.9% | 111% | 104% | 96.2% | 94.7% | 106% | 95.2% | 101% | 94.2% | 104% | 99.4% | 102% | 99.9% | 97.8% | 106% | 116% | 96.3% | 96.3% | 96.4% | 93.9% | 107%
O=C(N[C@H]1CN2CCC1CC2)c1ccc(Cl)cc1 | > 10 µM | > 10 µM | > 10 µM | > 10 µM | > 10 µM | 0 | 0 | 0 | 0 | 0 | 98.5% | 97.8% | 103% | 98.3% | 92.6% | 97.2% | 92.2% | 93.7% | 102% | 94.3% | 102% | 97.4% | 99.9% | 95.7% | 101% | 99.6% | 88.7% | 99.6% | 99.8% | 95.6% | 96.7% | 94.7% | 95.4% | 92.7% | 92.5%
O=c1cc[nH]c(=O)[nH]1 [uracil] | > 10 µM | > 10 µM | > 10 µM | > 10 µM | > 10 µM | 0 | 0 | 0 | 0 | 0 | 91.5% | 90.6% | 91.3% | 93.8% | 98.5% | 98.6% | 94% | 99.6% | 102% | 117% | 91.7% | 98.7% | 94.8% | 102% | 103% | 91.8% | 95.2% | 93% | 94.6% | 95.6% | 96.2% | 88.4% | 91.8% | 89.5% | 112%
CN1CCN(c2ccc3ccccc3n2)CC1 [N-methylquipazine] | > 10 µM | > 10 µM | > 10 µM | > 10 µM | > 10 µM | 0 | 0 | 0 | 0 | 0 | 102% | 91.4% | 104% | 97.3% | 102% | 99.4% | 96.1% | 98% | 102% | 111% | 101% | 99.4% | 102% | 96.8% | 98.9% | 106% | 96.2% | 99.2% | 96.4% | 95.1% | 97.7% | 97.8% | 95.7% | 97.1% | 111%
O=C1c2cccnc2OC[C@@H]2CCCN12 | > 10 µM | > 10 µM | > 10 µM | > 10 µM | > 10 µM | 0 | 0 | 0 | 0 | 0 | 108% | 99.6% | 100% | 95.6% | 100% | 96.9% | 98.8% | 96.1% | 102% | 99.2% | 103% | 98.6% | 95.9% | 97.7% | 96.4% | 103% | 87.1% | 98.9% | 101% | 91.1% | 93.8% | 98.5% | 90.5% | 91% | 103%
Cn1c(CNc2ccc(C(=N)N)cc2)nc2cc(C(=O)N(CCC(=O)O)c3ccccn3)ccc21 [dabigatran] | > 10 µM | > 10 µM | > 10 µM | > 10 µM | > 10 µM | 0 | 0 | 0 | 0 | 0 | 109% | 97.1% | 101% | 94% | 95.5% | 103% | 95.8% | 104% | 97.8% | 91.7% | 104% | 99.3% | 101% | 97.1% | 98.1% | 114% | 99.6% | 90.1% | 93.7% | 92.8% | 96.9% | 96.4% | 99.1% | 101% | 99%
COC1(C[S@@+]([O-])c2ccccc2)CCN(CCc2c[nH]c3ccc(F)cc23)CC1 | > 10 µM | > 10 µM | > 10 µM | > 10 µM | > 10 µM | 0 | 0 | 0 | 0 | 0 | 93.6% | 99.1% | 87.1% | 102% | 90.3% | 95.9% | 88.4% | 86.6% | 96.6% | 84.1% | 96.2% | 95.9% | 100% | 96.5% | 99.9% | 100% | 94.6% | 99% | 101% | 100% | 103% | 101% | 92.5% | 102% | 93.8%
O=C(CN1CCNCC1)NC1CCCCC1 [esaprazole] | > 10 µM | > 10 µM | > 10 µM | > 10 µM | > 10 µM | 0 | 0 | 0 | 0 | 0 | 105% | 92.2% | 105% | 98.5% | 98.6% | 104% | 99.5% | 100% | 102% | 90.1% | 99% | 100% | 102% | 100% | 108% | 98.3% | 98% | 101% | 104% | 97.1% | 103% | 107% | 99.1% | 107% | 98.5%
